{"source": "paper PMC3389674", "about": "“Comparison of Soluble Guanylate Cyclase Stimulators and Activators in Models of Cardiovascular Disease Associated with Oxidative Stress” (Frontiers in Pharmacology, 2012)", "key": {"[1]": {"biological_target": "T1, rat sGC (Rattus norvegicus, UniProt P20595)", "T1 sequence (P20595 1-619)": "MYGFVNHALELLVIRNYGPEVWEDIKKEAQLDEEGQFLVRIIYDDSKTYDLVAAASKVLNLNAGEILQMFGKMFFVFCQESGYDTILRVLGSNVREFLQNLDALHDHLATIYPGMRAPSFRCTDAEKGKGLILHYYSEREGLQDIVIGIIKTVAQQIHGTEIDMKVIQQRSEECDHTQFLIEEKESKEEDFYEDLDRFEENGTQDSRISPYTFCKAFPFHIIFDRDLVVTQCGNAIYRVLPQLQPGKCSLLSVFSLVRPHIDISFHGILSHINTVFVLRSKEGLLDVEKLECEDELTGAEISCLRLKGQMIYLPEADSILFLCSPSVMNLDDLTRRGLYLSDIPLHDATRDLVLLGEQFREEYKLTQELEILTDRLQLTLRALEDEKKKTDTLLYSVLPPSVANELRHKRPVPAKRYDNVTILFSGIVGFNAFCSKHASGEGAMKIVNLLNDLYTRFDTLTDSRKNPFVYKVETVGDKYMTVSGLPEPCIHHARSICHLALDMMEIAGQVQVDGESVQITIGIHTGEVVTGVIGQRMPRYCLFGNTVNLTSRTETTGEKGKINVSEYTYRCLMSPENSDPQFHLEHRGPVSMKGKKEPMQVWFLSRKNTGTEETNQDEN", "T1 sequence (P19686 1-690 partner)": "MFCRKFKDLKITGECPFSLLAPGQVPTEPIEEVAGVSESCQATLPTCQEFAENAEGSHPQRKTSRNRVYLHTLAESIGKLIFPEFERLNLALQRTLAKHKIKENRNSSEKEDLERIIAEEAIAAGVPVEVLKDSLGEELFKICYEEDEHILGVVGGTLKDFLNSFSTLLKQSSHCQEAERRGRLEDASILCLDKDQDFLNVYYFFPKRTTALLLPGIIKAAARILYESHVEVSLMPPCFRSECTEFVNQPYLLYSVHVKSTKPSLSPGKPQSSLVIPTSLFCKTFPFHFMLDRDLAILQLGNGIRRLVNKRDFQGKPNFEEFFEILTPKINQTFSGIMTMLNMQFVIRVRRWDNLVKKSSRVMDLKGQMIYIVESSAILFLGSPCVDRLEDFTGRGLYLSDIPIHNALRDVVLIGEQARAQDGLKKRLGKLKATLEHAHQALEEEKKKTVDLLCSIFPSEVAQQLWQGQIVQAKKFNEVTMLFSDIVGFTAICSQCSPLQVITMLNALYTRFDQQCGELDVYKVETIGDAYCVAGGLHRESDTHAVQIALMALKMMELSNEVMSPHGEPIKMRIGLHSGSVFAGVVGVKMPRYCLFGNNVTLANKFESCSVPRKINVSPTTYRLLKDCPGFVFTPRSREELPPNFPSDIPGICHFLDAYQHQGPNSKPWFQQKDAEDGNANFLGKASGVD", "experiment": "primary cell-free rat sGC enzyme assay (cGMP formation)", "assay_type": "biochemical", "conditions": "data not shown"}, "[2]": {"biological_target": "T2, OATP1B1 (Homo sapiens, UniProt Q9Y6L6)", "T2 sequence (Q9Y6L6 1-691)": "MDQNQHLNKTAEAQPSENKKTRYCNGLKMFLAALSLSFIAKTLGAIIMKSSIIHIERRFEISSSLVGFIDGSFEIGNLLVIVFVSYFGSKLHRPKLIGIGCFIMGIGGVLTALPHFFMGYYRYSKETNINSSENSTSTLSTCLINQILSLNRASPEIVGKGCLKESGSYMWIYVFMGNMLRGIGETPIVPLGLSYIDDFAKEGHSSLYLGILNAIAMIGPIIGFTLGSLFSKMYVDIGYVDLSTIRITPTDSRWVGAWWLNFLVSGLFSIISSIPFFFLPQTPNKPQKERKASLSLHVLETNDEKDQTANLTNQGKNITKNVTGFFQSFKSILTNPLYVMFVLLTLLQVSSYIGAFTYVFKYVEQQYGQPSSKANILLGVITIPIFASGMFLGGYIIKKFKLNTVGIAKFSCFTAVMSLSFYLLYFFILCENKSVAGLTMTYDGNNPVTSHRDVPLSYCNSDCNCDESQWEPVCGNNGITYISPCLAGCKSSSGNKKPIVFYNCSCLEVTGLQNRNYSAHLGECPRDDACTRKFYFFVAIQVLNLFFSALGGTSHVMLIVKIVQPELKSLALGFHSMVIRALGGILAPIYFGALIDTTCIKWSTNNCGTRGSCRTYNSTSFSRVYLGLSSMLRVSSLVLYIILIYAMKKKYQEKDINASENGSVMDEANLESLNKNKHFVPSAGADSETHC", "experiment": "in vitro selectivity profile: OATP1B1 transporter activity", "assay_type": "cell-based", "method": "The secondary pharmacological profile (i.e., sGC-independent activity) of GSK2181236A was assessed in cell-based functional assays by characterizing the interaction between GSK2181236A and 38 distinct human enzymes, ion channels, transporters, and G-protein-coupled receptors including 5-HT (5-HT1B/2A/2C/3), 5-HT transporter (SERT), adenosine (A2a), adrenergic (α1B/2C, β2), Aurora B kinase, cycoloxygenase-2 (COX-2), CaV1.2, cytochrome P450 (CYP2C19, 2D6, and 3A4), dopamine (D2), dopamine transporter (DAT), gamma-aminobutyric acid (GABAA), glycogen synthase kinase-3 (GSK3β) histamine (H1), KV1.5, KV7.1, KV11.1, lymphocyte-specific protein tyrosine kinase (LCK), L-monoamine oxidase (MAO-B) muscarinic (M1/2), NaV1.5, nicotinic (α1 nAChR), noradrenaline transporter (NET), opioid (κ, μ), organic anion transporting polypeptide C (OATP1B1), phosphodiesterase 5 (PDE5), phosphatidylinositol 3-kinase (PI3Kγ), pregnane X receptor (PXR), tachykinin (NK1), and vasopressin (V1a)."}}, "note": "pEC50, pIC50: −log10 of the molar value.", "data": [{"smiles": "Cc1cc(-c2ccc(OC(F)(F)F)cc2)ccc1COc1ccccc1-c1cccc(-n2ncc(C(=O)O)c2C(F)(F)F)n1", "note": "[GSK2181236A, 1-(6-{2-[({3-methyl-4′-[(trifluoromethyl)oxy]-4-biphenylyl}methyl)oxy]phenyl}-2-pyridinyl)-5-(trifluoromethyl)-1H-pyrazole-4-carboxylic acid]", "values": [{"measurement": "pEC50", "setting": "[1]", "result": 7.57}, {"measurement": "selectivity ratio", "setting": "[2]; human, cell-based functional assay (human OATP1B1 transporter), vs P-VASP EC50 12.7 nM, read-out: selectivity for sGC over OATP1B1", "result": 23}, {"measurement": "pIC50", "setting": "[2]; read-out: IC50, inhibition of transporter activity", "result": 6.52}]}]}
